Assays:
[1] = system: carnitine level in skeletal muscle tissue; experiment: Carnitine levels in mouse tissues after i.p. peptide administration (commercial carnitine kit); assay type: in vivo, Male ICR mice
Procedure: (§1) Male ICR mice were injected i.p. with 250 mg/kg of the DY-65 peptide for 5 consecutive days. Half an hour after the last injection lung, heart, skeletal muscle (femural), brain, liver, kidney and blood were removed, homogenized (100 mg tissue in 200 μl distilled water), centrifuged and filtrated through 30K Microcon® filter. Carnitine analysis was carried out by a commercial kit (BIOVISION™, catalogue number K642-100). n=4 for each group.

[2] = Toxicity observation in mice treated with the peptide; assay type: in vivo; conditions: male ICR mice, 250 mg/kg i.p. for 5 consecutive days
[3] = system: carnitine level in other tissues, including liver and kidneys; experiment: Carnitine levels in other mouse tissues (lung, heart, brain, liver, kidney, blood) after i.p. peptide administration; assay type: in vivo; conditions: male ICR mice, 250 mg/kg i.p. for 5 consecutive days, tissues removed half an hour after last injection
Procedure: as §1

## N-acetyl-Cys-Lys-Met-Cys-NH2 (Ac-CKMC-NH2; cysteine pairing not given here) [DY-65]
[1]; healthy male ICR mice, 250 mg/kg i.p. for 5 consecutive days, femural skeletal muscle removed half an hour after last injection, p<0.05, n=4
  elevation in the level of carnitine in skeletal muscle tissue: about 150%
[2]
  toxicity effects: no toxicity effects were observed
[3]
  elevation in carnitine level in other tissues, including liver and kidneys: did not demonstrate a significant elevation in carnitine level

## N-acetyl-Cys-Met-Lys-Cys-NH2 (Ac-CMKC-NH2; cysteine pairing not given here) [DY-70, reference compound]
[1]; experiment of Example 1 repeated, all tissues examined (lung, heart, skeletal muscle, brain, liver, kidney, blood)
  increased carnitine levels compared to baseline levels in any of the tissues examined: did not result in increased carnitine levels
